From US20250034185A1 (priority 2021, published 2025)

Columns and labels:
[1] = test system: plasma enzymes; conditions: Sprague Dawley, rat
[2] = Pharmacokinetic study 4: SP isomer, RP isomer and D-amino acid prodrug, IV and PO, rats; type: in vivo; conditions: rat, IV (and PO)
Excerpt: The goal of the study was to compare the pharmacokinetic (PK) profiles of the S-isomer (16i) and the R-isomer (16iii) at the phosphorus center, and to assess the effect of using the D-amino acid (16i with SP and RP isomers) on PK profile.
In order to isolate the effects of the administered agents on PL and PLP levels, the basal levels of both PL and PLP subtracted from the measured concentrations. Baseline subtraction was accomplished by subtracting pre-dose concentrations of either PL or PLP from the subsequent values in the time course.
Formulation—Prodrugs 16i (SP isomer), 16i (RP isomer) and 16i′ (16i with D-amino acid racemate) were formulated in phosphate buffered saline (PBS) as a homogenous solution on the day of dosing.
(§1) Animals and group—19 CD ♂ rats with an approx. weigh of ˜250 g were used. Animals were split into 6 groups+1 extra (n=3 for each group). Animals were allowed a 5-day acclimatization period in animal facility. The animal room environment was controlled (temperature 22 f 0.2° C.; relative humidity 55 f 25%; 12 hours light/dark cycle, and 12 air changes per hour). A standard certified commercial rodent chow was provided to the animals ad libitum. Procedures involving the care and use of animals in this study were reviewed and approved by the Institutional Animal Care and Use Committee (IACUC) prior to conduct. One day prior to dosing on D-1, Rats were divided in 6 groups (Table 1). Animals were identified and bled for pre-dose blood. Rats in Group 4, 5 and 6 were fasted overnight (12-14 hours) with access of water.
On day 0, animals were weighted, and dosed by IV injection or by oral gavage as described in Table 10. Food tray were returned to Group 4, 5 and 6 two hours post dosing.
(§2) Blood was collected at indicated time points below for all groups: Pre-dose, 5′, 15′, 30′, 1 h, 2 h, 4 h, 6 h, 8 h, 24 h.
(§3) About 150 μL of blood was collected at indicated time points below using K2EDTA tubes. Blood was kept on ice until centrifugation at 4° C. at 6000 RCF for 10 min. Plasma was collected and kept on dry ice until transferred at −80° C.

[3] = Single ascending dose study of P5P analog 16, oral, rats; type: in vivo; conditions: rat
Procedure: Single ascending dose studies were carried out (Example 97: P5P analog 16i: single ascending dose study) to assess the maximum tolerability of a P5P analog (compound of formula 16i) in rats under 4 different doses under one single administration via Per Os (P.O.—oral) route, and to inform the linearity of pharmacokinetics (PK) with multiple dosing.
In order to isolate the effects of the administered compound of formula 16i on pyridoxine (PL) and P5P (PLP) levels, the basal levels of both PL and P5P were subtracted from the measured concentrations. Baseline subtraction was accomplished by subtracting pre-dose concentrations of either PL or P5P from the subsequent values in the time course.
Formulation—P5P analog 16 was formulated in 1% methylcellulose in water on the day of dosing.
as §1, with “group—17” for “group—19”, “4” for “6”, “(n=4” for “(n=3”, “6).” for “1).”, “all groups” for “Group 4, 5 and 6”
On day 0, animals in groups 1-2-3 were weighed, and dosed by oral gavage as described in Table 6. Each remaining dosing solutions were stirred (or slightly vortexed), a 50 ul sample were collected and placed in separate tube and both vials immediately frozen on dry ice. Food tray were returned to animals two hours post dosing.
Cage-side observation were done upon dosing, at the end of day, and 24 hrs post dosing (record adverse effect if observed). Animal were weighed again at 24 hrs post dosing.
Blood was collected at indicated time points for all groups at: Pre-dose, 15′, 30′, 1 h, 2 h, 4 h, 6 h, 8 h, 24 h.
as §3

[4] = Pharmacokinetic study 1: P5P and P5P analog 16, IV and PO, rats; type: in vivo; conditions: dosed orally, rat
Procedure: Pharmacokinetic study 1 was carried out (see Example 98: P5P analog 16i: Pharmacokinetic study 1) to assess if P5P analog 16i was able to be converted to P5P and increase plasma P5P, to assess if P5P analog 16i was orally available, and to compare the ability of PO P5P analog 16i and PO P5P to increase plasma P5P.
In order to isolate the effects of the administered P5P analog 16i on pyridoxine (PL) and P5P (PLP) levels, the basal levels of both PL and P5P were subtracted from the measured concentrations. Baseline subtraction was accomplished by subtracting pre-dose concentrations of either PL or P5P from the subsequent values in the time course.
Formulation—Both P5P (pyridoxal-5-phosphate) and P5P analog 16 were formulated in phosphate buffered saline (PBS) as homogenous solutions on the day of dosing.
Animals and group—13 CD ♂ rats with an approx. weigh of ˜250 g were used. Animals were split into 4 groups+1 extra (n=3 for each group). Animals were allowed a 5-day acclimatization period in animal facility. The animal room environment was controlled (temperature 22 f 0.2° C.; relative humidity 55 f 25%; 12 hours light/dark cycle, and 12 air changes per hour). A standard certified commercial rodent chow was provided to the animals ad libitum. Procedures involving the care and use of animals in this study were reviewed and approved by the Institutional Animal Care and Use Committee (IACUC) prior to conduct. One day prior to dosing on D-1, Rats were divided in 4 groups (Table 7). Rats in Group 3 and 4 were fasted overnight (12-14 hours) with access to water.
On day 0, animals were identified, weighted, and dosed by intravenous (IV) injection or oral gavage (PO) as described in Table 7. Food tray were returned to Group 3 and 4, 2 hrs post dosing.
as §2, §3

Cc1ncc(CO[P@@](=O)(N[C@@H](C)C(=O)OC(C)C)Oc2ccccc2)c(C=O)c1O [Compound 16i, (S)-Isopropyl 2-((S)-((4-formyl-5-hydroxy-6-methylpyridin-3-yl)methoxy)(phenoxy)phosphorylamino)propanoate]
relative P5P formed [1]: 100.0% | conversion to PLP in the plasma [2]: readily converted to PLP | T1/2 of PL and PLP as dose was increased ([3]; PO 10-300 mg/kg): increase | plasma PL and P5P concentrations with increasing dose ([3]; PO 10-300 mg/kg): clear dose-dependent increase | dose linearity of plasma PL and PLP (Cmax and AUC) ([3]; PO): dose linearity up to 300 mg/kg | signs of toxicity ([3]; highest dose group 300 mg/kg PO): did not show any signs of toxicity | adverse reactions / clinical signs ([3]; single PO dose 10, 30, 100, 300 mg/kg, observed to 24 hrs): no clinical signs were observed | oral availability of the prodrug (crosses gastrointestinal wall, detectable in circulation) [4]: orally bioavailable
